Values of other authors, collected in patent publication US20080167325A1, “VALACYCLOVIR COMPOSITIONS” (priority 2006, published 2008).

How the values were obtained:
[1] = first-pass hepatic metabolism through enzymatic hydrolysis
[2] = compared with acyclovir

## CC(C)[C@H](N)C(=O)OCCOCn1cnc2c(=O)[nH]c(N)nc21 [Valacyclovir, L-valine, 2-[(2-amino-1,6-dihydro-6-oxo-9H-purin-9-yl)methoxy]ethyl ester]
[1]
  converted to the active compound, acyclovir, and L-valine: ~99%
Cytochrome P450 enzymes
  metabolized by cytochrome P450 enzymes: Neither valacyclovir nor acyclovir is metabolized
[2]
  bioavailability: much improved bioavailability
